# Test system: LG0703-F498-PDC complex spheroid growth
# Assay: Anticancer human tumor LG0703-F498-PDC patient-derived lung adenocarcinoma cell line growth inhibition [AhR]
# Details: for IC50: curve of first compound; for viability, T/C: stronger effect = lower value
# Text: Multicellular complex tumor spheroid response to aryl hydrocarbon receptor antagonists in combination with a variety of drugs and investigational agents in selected tumor cell lines
# The current study was undertaken to assess response to aryl hydrocarbon receptor antagonists in combination with standard-of-care drugs and investigational agents in solid tumor complex spheroid models. Complex spheroids include a stromal component modeled by human endothelial cells (HUVEC) and fibroblasts modeled by human mesenchymal stem cells (MSCs). The concentration ranges selected for each drug and investigational agent were based upon clinically achievable concentrations if the clinical Cmax of the agent was known.
# Compounds. The drugs and investigational agents: BAY 2416964 (NSC825713), GNF351 (NSC835774), CH-223191 (NSC835775), CPI-455 (NSC825282), aza-TdCyd (NSC777586), decitabine (NSC127716), belinostat (NSC758774), entinostat (NSC756642), pevonedistat (NSC761192), tazemetostat (NSC777109), talazoparib (NSC765396), olaparib (NSC753686), selinexor (NSC780203), nedisertib (M3814, NSC802822), bortezomib (NSC756655), venetoclax (NSC766270), doxorubicin (NSC123127), elimusertib (BAY189344, NSC800525), ceralasertib (AZD6738, NSC777638), TAK-243 (NSC785004), alisertib (NSC759677), etoposide (NSC141540), topotecan (NSC609699), eribulin (NSC707389), gemcitabine (NSC613327), carboplatin (NSC241240), cisplatin (NSC119875), and SN-38 (NSC673596) were obtained from the National Cancer Institute (NCI) Developmental Therapeutics Program Chemical Repository (32). The FDA-approved anticancer drug set is available from the Developmental Therapeutics Program at https://dtp.cancer.gov/organization/dscb/obtaining/available plates.htm. […] The stock solutions were prepared in dimethyl sulfoxide (DMSO, Sigma-Aldrich, St. Louis, MO, cat. D2650), except for the platinum compounds which were prepared in saline (Quality Biological, Gaithersburg, MD, cat. 114-055-101), at 800-fold the tested concentration and stored at -70 degrees C prior to their use. All drugs and investigational agents were tested over a range starting from a high concentration at or near the clinical Cmax and decreasing in half-log increments. If the clinical Cmax for an agent had not been determined, the highest concentration tested was 10 microM (Table 1).
# Cell Culture. All cells were maintained in an incubator at 37 degrees C and 5% CO2 with 95% humidity. The PDC lines were cultured according to standard operating procedures established by the NCI PDMR (https://pdmr.cancer.gov). Briefly, all PDCs were thawed and cultured in Matrigel-coated flasks prepared with a working solution of 1X Ham's F-12 nutrient mix, without supplementation (Invitrogen, Waltham, MA, cat. 11765054), 100 U/mL penicillin-streptomycin (Invitrogen, cat. 15140122), and 2.5% Matrigel (Corning Inc., Corning, NY, cat. 354248) for the first three passages. All PDCs were cultured in complete DMEM/F-12 media containing advanced DMEM/F-12 (Invitrogen, cat. 12634028), 4.9% defined fetal bovine serum, heat inactivated (HyClone Laboratories Inc., Logan, UT, cat. SH30070.03HI), 389 ng/mL hydrocortisone (Sigma-Aldrich, cat. H4001), 9.7 ng/mL human EGF recombinant protein (Invitrogen, cat. PHG0313), 23.4 microg/mL adenine (Sigma-Aldrich, cat. A2786), 97.3 U/mL penicillin-streptomycin (Invitrogen, cat. 15140122), 1.9 mM L-glutamine (Invitrogen, cat. 25030081), and 9.7 microM Y-27632 dihydrochloride (Tocris Bioscience, Bristol, United Kingdom, cat. 1254). The PDCs were cultured in complete DMEM/F12 media without 10 microM Y-27632 dihydrochloride for at least two passages prior to the screen. The established cell lines NCI-H1341 and […] were cultured in DMEM/F-12, HEPES (Invitrogen, cat. 11330032), 5% defined fetal bovine serum (HyClone Laboratories Inc., cat. SH30070.03), ITS premix universal culture supplement [insulin (5 microg/mL), transferrin (5 microg/mL), and selenious acid (5 ng/mL)] […]
# [1] = second compound 0.1 µM, first compound 0.0316 µM
# [2] = second compound 0.1 µM, first compound 0.1 µM
# [3] = second compound 0.316 µM, first compound 0.0316 µM
# [4] = second compound 0.316 µM, first compound 0.1 µM
# [5] = second compound 1 µM, first compound 0.0316 µM
# [6] = second compound 1 µM, first compound 0.1 µM
# [7] = second compound 3.16 µM, first compound 0.0316 µM
# [8] = second compound 3.16 µM, first compound 0.1 µM
# [9] = second compound 10 µM, first compound 0.0316 µM
# [10] = second compound 10 µM, first compound 0.1 µM
# [11] = second compound 0.1 µM, first compound 0.316 µM
# [12] = second compound 0.1 µM, first compound 1 µM
# [13] = second compound 0.1 µM, first compound 3.16 µM
# [14] = second compound 0.1 µM, first compound 10 µM
# [15] = second compound 0.316 µM, first compound 0.316 µM
# [16] = second compound 0.316 µM, first compound 1 µM
# [17] = second compound 0.316 µM, first compound 3.16 µM
# [18] = second compound 0.316 µM, first compound 10 µM
# [19] = second compound 1 µM, first compound 0.316 µM
# [20] = second compound 1 µM, first compound 1 µM
# [21] = second compound 1 µM, first compound 3.16 µM
# [22] = second compound 1 µM, first compound 10 µM
# [23] = second compound 3.16 µM, first compound 0.316 µM
# [24] = second compound 3.16 µM, first compound 1 µM
# [25] = second compound 3.16 µM, first compound 3.16 µM
# [26] = second compound 3.16 µM, first compound 10 µM
# [27] = second compound 10 µM, first compound 0.316 µM
# [28] = second compound 10 µM, first compound 1 µM
# [29] = second compound 10 µM, first compound 3.16 µM
# [30] = second compound 10 µM, first compound 10 µM
# 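Further: luminescence taken as a proxy for viable cell amount.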
# 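Wherever viability, T/C is given: percent of DMSO vehicle control where 100% means growth equal to vehicle.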
structure (smiles),measurement,setting,value
Cn1ncnc1C1c2n[nH]c(=O)c3cc(F)cc(c23)NC1c1ccc(F)cc1 (stereo not given) + Cc1cncc(-c2nc(NCCc3c[nH]c4ccccc34)c3ncn(C(C)C)c3n2)c1,IC50,second compound 0.1 µM,> 0.1 µM
same,IC50,second compound 0.316 µM,> 0.1 µM
same,IC50,second compound 1 µM,> 0.1 µM
same,IC50,second compound 3.16 µM,< 0.000316 µM
same,IC50,second compound 10 µM,< 0.000316 µM
same,"viability, T/C","second compound 0.1 µM, first compound 0.000316 µM",101%
same,"viability, T/C","second compound 0.1 µM, first compound 0.001 µM",93.3%
same,"viability, T/C","second compound 0.1 µM, first compound 0.00316 µM",93.2%
same,"viability, T/C","second compound 0.1 µM, first compound 0.01 µM",93.8%
same,"viability, T/C",[1],91.3%
same,"viability, T/C",[2],82.6%
same,"viability, T/C","second compound 0.316 µM, first compound 0.000316 µM",94.6%
same,"viability, T/C","second compound 0.316 µM, first compound 0.001 µM",108%
same,"viability, T/C","second compound 0.316 µM, first compound 0.00316 µM",98.4%
same,"viability, T/C","second compound 0.316 µM, first compound 0.01 µM",98.5%
same,"viability, T/C",[3],104%
same,"viability, T/C",[4],89.1%
same,"viability, T/C","second compound 1 µM, first compound 0.000316 µM",103%
same,"viability, T/C","second compound 1 µM, first compound 0.001 µM",116%
same,"viability, T/C","second compound 1 µM, first compound 0.00316 µM",100%
same,"viability, T/C","second compound 1 µM, first compound 0.01 µM",106%
same,"viability, T/C",[5],109%
same,"viability, T/C",[6],95.7%
same,"viability, T/C","second compound 3.16 µM, first compound 0.000316 µM",49.3%
same,"viability, T/C","second compound 3.16 µM, first compound 0.001 µM",47%
same,"viability, T/C","second compound 3.16 µM, first compound 0.00316 µM",58.2%
same,"viability, T/C","second compound 3.16 µM, first compound 0.01 µM",42.4%
same,"viability, T/C",[7],48%
same,"viability, T/C",[8],54%
same,"viability, T/C","second compound 10 µM, first compound 0.000316 µM",1.14%
same,"viability, T/C","second compound 10 µM, first compound 0.001 µM",1.01%
same,"viability, T/C","second compound 10 µM, first compound 0.00316 µM",1.11%
same,"viability, T/C","second compound 10 µM, first compound 0.01 µM",1.03%
same,"viability, T/C",[9],1.15%
same,"viability, T/C",[10],1.54%
COc1cc(C2c3cc4c(cc3C(OC3OC5COC(C)OC5C(O)C3O)C3COC(=O)C23)OCO4)cc(OC)c1O (stereo not given) + Cc1ccccc1N=Nc1ccc(NC(=O)c2ccnn2C)c(C)c1,IC50,second compound 0.1 µM,> 10 µM
same,IC50,second compound 0.316 µM,> 10 µM
same,IC50,second compound 1 µM,> 10 µM
same,IC50,second compound 3.16 µM,> 10 µM
same,IC50,second compound 10 µM,> 10 µM
same,"viability, T/C",[1],94.8%
same,"viability, T/C",[2],103%
same,"viability, T/C",[11],86.2%
same,"viability, T/C",[12],95.2%
same,"viability, T/C",[13],91.3%
same,"viability, T/C",[14],72.1%
same,"viability, T/C",[3],96.2%
same,"viability, T/C",[4],93.5%
same,"viability, T/C",[15],106%
same,"viability, T/C",[16],79.5%
same,"viability, T/C",[17],68.4%
same,"viability, T/C",[18],59.3%
same,"viability, T/C",[5],79.2%
same,"viability, T/C",[6],104%
same,"viability, T/C",[19],99.4%
same,"viability, T/C",[20],79.8%
same,"viability, T/C",[21],65.2%
same,"viability, T/C",[22],62.7%
same,"viability, T/C",[7],85.5%
same,"viability, T/C",[8],94%
same,"viability, T/C",[23],93.5%
same,"viability, T/C",[24],80.2%
same,"viability, T/C",[25],74.2%
same,"viability, T/C",[26],59.6%
same,"viability, T/C",[9],77%
same,"viability, T/C",[10],96.5%
same,"viability, T/C",[27],93.5%
same,"viability, T/C",[28],73.5%
same,"viability, T/C",[29],81.4%
same,"viability, T/C",[30],70.6%
COc1ccc([C@@H](O)c2cc(-c3ncnc4cc(N5CCOCC5)ccc34)c(F)cc2Cl)nn1 + Cc1cncc(-c2nc(NCCc3c[nH]c4ccccc34)c3ncn(C(C)C)c3n2)c1,IC50,second compound 0.1 µM,5.42 µM
same,IC50,second compound 0.316 µM,4.81 µM
same,IC50,second compound 1 µM,4.59 µM
same,IC50,second compound 3.16 µM,< 0.0316 µM
same,IC50,second compound 10 µM,< 0.0316 µM
same,"viability, T/C",[1],87.8%
same,"viability, T/C",[2],107%
same,"viability, T/C",[11],98.1%
same,"viability, T/C",[12],82.2%
same,"viability, T/C",[13],65.3%
same,"viability, T/C",[14],34%
same,"viability, T/C",[3],105%
same,"viability, T/C",[4],97%
same,"viability, T/C",[15],97.8%
same,"viability, T/C",[16],82%
same,"viability, T/C",[17],63.5%
same,"viability, T/C",[18],27.5%
same,"viability, T/C",[5],95.9%
same,"viability, T/C",[6],104%
same,"viability, T/C",[19],103%
same,"viability, T/C",[20],92.4%
same,"viability, T/C",[21],60.4%
same,"viability, T/C",[22],28.7%
same,"viability, T/C",[7],36.7%
same,"viability, T/C",[8],42.4%
same,"viability, T/C",[23],34%
same,"viability, T/C",[24],27.4%
same,"viability, T/C",[25],17.8%
same,"viability, T/C",[26],13%
same,"viability, T/C",[9],1.26%
same,"viability, T/C",[10],1%
same,"viability, T/C",[27],1.42%
same,"viability, T/C",[28],1.17%
same,"viability, T/C",[29],0.52%
same,"viability, T/C",[30],1.67%

# Source: PubChem BioAssay AID1919013 (Molecular Pharmacology Branch, DTP, NCI, 2023)
